Test results: PMC7822874, “Chemoprotective antimalarials identified through quantitative high-throughput screening of Plasmodium blood and liver stage parasites” (Scientific Reports, 2021)
Read-outs that look alike come from different tables or passages of the source.

What was measured:
in vitro = settings: human
[1] = system: Plasmodium falciparum Dd2 asexual blood stage parasites; assay: microbe, parasite or virus in culture; design: species or system Plasmodium falciparum Dd2 in human erythrocytes; single determination (one 11-point concentration-response curve); settings: 72 h, read-out: AC50
[2] = HepG2-A16-CD81EGFP cells, uninfected
[3] = Plasmodium falciparum, DD2, Erythrocyte

SMILES | viability at 48 h, 1 µM (in vitro; [2]) | viability at 48 h, 3 µM (in vitro; [2]) | AC50 [1, 3] | viability (in vitro) | viability at 48 h (in vitro; [2]) | viability at 66 h (in vitro; [2]) | viability at 66 h (in vitro) | AC50 [1]
Oc1cc2c(cc1CN1CCN(c3cccc(C(F)(F)F)c3)CC1)CCC2 [MLS000570420-01] | 102% | 101% | 944 nM |  |  |  |  | 
Cc1ccccc1Nc1cc(C)c2c(O)cccc2n1 [MLS000586981-01] | 105% | 100% | 5310 nM |  |  |  |  | 
COc1ccc(C2=C(Nc3ccc(C)cc3)c3ccccc3C2=O)cc1 [MLS000563980-01] | 96% | 90% | 4730 nM |  |  |  |  | 
Oc1c2c(nc3ccc(Br)cc13)CCCC2 [MLS000074180-01] | 100% | 98% | 6680 nM |  |  |  |  | 
COc1ccc(C2c3[nH]c4ccccc4c3C[C@H]3C(=O)N(C4CCN(Cc5ccccc5)CC4)CC(=O)N23)c(OC)c1 (some centres unmarked) [MLS001213218-01] | 106% | 102% | 2370 nM |  |  |  |  | 
CC1Cc2nc(SCC(=O)Nc3ccc4c(c3)OCO4)n(-c3ccc(F)cc3)c(=O)c2S1 (centres unmarked) [MLS000685016-01] | 97% | 93% | 2990 nM |  |  |  |  | 
Cc1ccc2sc(N3CCN(C(=O)c4ccc([N+](=O)[O-])o4)CC3)nc2c1C [MLS001234068-01] | 111% | 105% | 5310 nM |  |  |  |  | 
COc1ccc(CN2CCCC(N3CCc4ccccc4C3)C2)c(O)c1 (centres unmarked) [MLS001001490-01] | 84% | 89% | 2990 nM |  |  |  |  | 
CCN(CC)C1=NC(=[N+](CC)CC)c2ccccc21.[O-][Cl+3]([O-])([O-])O [MLS000565348-01] |  |  | 5310 nM | 81.5% |  |  |  | 
CCOC(=O)C1=C(c2ccccc2)N=c2sc(=Cc3cc(OC)c(OC)c(OC)c3)c(=O)n2C1c1cccs1 (centres unmarked) [MLS000572607-01] | 82% | 81% | 5960 nM |  |  |  |  | 
CCCCNc1nc2sc3c(c2c(=O)n1-c1cccc(Cl)c1)CCN(C)C3 [MLS000762857-01] | 106% |  | 9440 nM |  | 106% |  |  | 
Cc1ccc(NC(=O)c2ccc(NCCCN3CCC(C)CC3)c([N+](=O)[O-])c2)cc1F [MLS000689412-01] | 106% | 104% | 6680 nM |  |  |  |  | 
O=C(Nc1ccc(C2=NCCN2)cc1)c1ccc(C(=O)Nc2ccc(C3=NCCN3)cc2)c([N+](=O)[O-])c1 [MLS000737369-01] | 94% | 85% | 237 nM |  |  |  |  | 
COc1ccc(NC(C)C(=O)Nc2cc(C(F)(F)F)ccc2N2CCOCC2)c(OC)c1 (centres unmarked) [MLS000334848-01] | 100% | 91% | 841 nM |  |  |  |  | 
O=C1C2=C(Nc3ccccc3SC2c2ccco2)c2ccccc21 (centres unmarked) [MLS000108310-01] | 110% | 99% | 4730 nM |  |  |  |  | 
Cc1c(C#N)c2ccccc2n1CCOc1ccccc1F [MLS000113080-01] | 100% | 97% | 1680 nM |  |  |  |  | 
CCCN(CCC)CCCNc1ccc(C(=O)Nc2cccc(OC)c2)cc1[N+](=O)[O-] [MLS000689411-01] | 106% | 104% | 5960 nM |  |  |  |  | 
Cc1c(O)c(CN2CCCC2)cc2c1oc(=O)c1ccccc12 [MLS000081529-01] | 108% | 102% | 2660 nM |  |  |  |  | 
CCOC(=O)c1cnc2cc(OCC(C)C)c(OCC(C)C)cc2c1O [NCGC00167562-01] | 83% | 82% | 944 nM |  |  |  |  | 
Cc1ccc(NC(=O)CC[S+](=O)([O-])c2cc(Br)cc3c2N(C(=O)C2CC2)CC3)cc1 [NCGC00107230-01] |  |  | 2370 nM |  |  | 101% |  | 
CCOc1ccc(NC2=C(OC)C(=O)c3ccccc3C2=O)cc1 [MLS000588108-01] | 101% | 98% | 376 nM |  |  |  |  | 
C/C(Cl)=C/Cc1c(C)nc2c(ccc3ccccc32)c1O [MLS001211902-01] | 86% | 92% | 841 nM |  |  |  |  | 
CCC(O)(CC)C(=O)NN(C(=O)Nc1csc2c1CCCC2)c1ccccc1 [MLS000554206-01] | 98% | 95% | 2990 nM |  |  |  |  | 
Cc1cc(Nc2ccc3ccccc3c2)n2ncnc2n1 [MLS000077665-01] | 88% | 86% | 596 nM |  |  |  |  | 
CCN1CCN(Cc2ccc(NC(=O)c3cc(NC(=O)C(=O)c4c[nH]c5ccccc45)cc(OC)c3)cc2C(F)(F)F)CC1 [MLS003105970-01] |  |  | 668 nM |  |  | 105% |  | 
COc1ccc(C(C(=O)Nc2ccc(C(C)C)cc2)N(Cc2ccco2)C(=O)CC2NC(=O)NC2=O)cc1 (centres unmarked) [MLS000729756-01] | 99% | 94% | 6680 nM |  |  |  |  | 
O=C(Nc1c(C(=O)c2ccccc2)oc2ccccc12)c1cc(-c2ccccc2O)n[nH]1 [MLS000331861-01] | 100% | 99% | 2110 nM |  |  |  |  | 

SMILES | viability at 48 h, 1 µM (in vitro; [2]) | viability at 48 h, 3 µM (in vitro; [2]) | AC50 [1, 3] | viability (in vitro) | viability at 48 h (in vitro; [2]) | viability at 66 h (in vitro; [2]) | viability at 66 h (in vitro) | AC50 [1]
CCc1nc(Nc2ccc3nccnc3c2)c2oc3ccccc3c2n1 [MLS000041713-01] | 104% | 95% | 2370 nM |  |  |  |  | 
CN(C)c1cc[n+](CC(=O)c2ccc(Br)cc2)cc1 [MLS000678949-01] |  |  | 7500 nM |  |  | 103% |  | 
CCc1cc2c(Sc3nc4ccccc4s3)ncnc2s1 [MLS000544746-01] | 104% | 101% | 1500 nM |  |  |  |  | 
OC(CNCc1cccc(Cl)c1)c1ccccc1 (centres unmarked) [MLS000674343-01] |  |  | 4730 nM |  |  | 106% |  | 
CC(C)C(=O)OCC(=O)[C@@]12O[C@H](C3CCCCC3)O[C@@H]1C[C@H]1[C@@H]3CCC4=CC(=O)C=C[C@]4(C)[C@H]3[C@@H](O)C[C@@]12C [NCGC00167484-01] | 97% | 94% | 2660 nM |  |  |  |  | 
Oc1ccc(C2NCc3ccccc3-n3cccc32)cc1Cl (centres unmarked) [MLS000047999-01] | 99% | 90% | 1500 nM |  |  |  |  | 
Oc1ccc(C2NCc3ccccc3-n3cccc32)cc1Cl (centres unmarked) [MLS000878874-01] |  |  |  |  |  |  | 108% | 1190 nM
COc1cc(C(=O)Nc2ccc3nc(N4CCN(C)CC4)cc(C)c3c2)cc(OC)c1OC [MLS001197839-01] | 101% | 103% | 3350 nM |  |  |  |  | 
CCCCCCSc1ccc([C@H]2N[C@@](Cc3ccccc3)(C(=O)OC)[C@H]3C(=O)N(C)C(=O)[C@@H]23)cc1 [MLS001361994-01] | 112% | 100% | 4730 nM |  |  |  |  | 
CCOC(=O)c1nc2cc3n(c(CC(C)C)c-2c1C)CC(C)=C3C [MLS000594428-01] | 108% |  | 7500 nM |  | 108% |  |  | 
Cc1cn(-c2cc(C(=O)Nc3ccc(C)c(NC(=O)C(=O)c4c[nH]c5ccccc45)c3)cc(C(F)(F)F)c2)cn1 [MLS003105973-01] | 112% |  | 2110 nM |  | 112% |  |  | 
Cc1ccc(S(=O)(=O)NC(=O)Nc2ccc(N(C)C)cc2)cc1 [MLS001098045-01] | 100% | 99% | 1330 nM |  |  |  |  | 
Cc1cc(C)cc(Nc2cc(C)nc3nc(C)nn23)c1 [MLS000116612-01] | 112% |  | 5310 nM |  | 112% |  |  | 
COc1ccccc1C1c2[nH]c3ccccc3c2C[C@H]2C(=O)N(C3CCN(Cc4ccccc4)CC3)CC(=O)N12 (some centres unmarked) [MLS001215063-01] | 87% | 85% | 2110 nM |  |  |  |  | 
COc1cccc(Cn2c(Oc3ccccc3)nc3c2c(=O)n(C)c(=O)n3C)c1 [MLS000038011-01] | 107% | 98% | 4730 nM |  |  |  |  | 
CN(CCNC(=O)c1cc2c(-c3ccccc3F)nn(C)c2s1)C1CCCCC1 [MLS001199243-01] | 84% | 84% | 5960 nM |  |  |  |  | 
CC(C)CCNC(=O)c1cc(C(=O)c2cc(Br)ccc2O)cn(CCC(C)C)c1=O [MLS000775608-01] |  |  | 944 nM |  |  |  | 105% | 
CCCn1c2c(c(=N)c3c1CCC3)CCCC2 [MLS000702605-01] |  |  | 10600 nM |  |  | 93.8% |  | 
Cc1c(O)c(CN2CCCCC2)cc2c1oc(=O)c1ccccc12 [MLS000551544-01] |  |  | 750 nM |  |  | 95.3% |  | 
O=S(=O)(c1ccc(Cl)cc1)N1CCN(/C(S)=N/c2ccccc2F)CC1 [MLS001002653-01] | 97% | 94% | 2370 nM |  |  |  |  | 
Cc1cc(N2CCN(C3CCCCC3)CC2)nc2cccc(O)c12 [MLS000118317-01] | 104% | 105% | 5310 nM |  |  |  |  | 
Oc1ccc(Cl)cc1CNCc1ccc(C(F)(F)F)cc1 [MLS002207454-01] |  |  | 4220 nM |  |  | 109% |  | 
CCOC(=O)c1nnn(-c2nonc2-n2cccc2)c1CN1CCCCC1 [MLS000090434-01] | 102% | 100% | 7500 nM |  |  |  |  | 
Cc1cc(Nc2cccc(F)c2)nc(NCc2ccccc2)n1 [MLS000589387-01] | 98% | 87% | 8410 nM |  |  |  |  | 
CCCCOc1ccc(C(=O)N/C(=C\c2cccc([N+](=O)[O-])c2)C(=O)OC(C)C)cc1 [MLS000574332-01] | 101% | 100% | 2110 nM |  |  |  |  | 
Cc1cc(C(C)c2ccccc2)c(O)c(CN2CCOCC2)c1C (centres unmarked) [MLS000064176-01] | 108% |  | 2990 nM |  | 108% |  |  | 
O=C(Nc1cccc(-c2nc3ccccc3[nH]2)c1)c1ccc(C(=O)Nc2cccc(-c3nc4ccccc4[nH]3)c2)cc1 [MLS000766212-01] | 105% | 96% | 2660 nM |  |  |  |  | 
